Test results taken from publication PMC9631117, “Epitope length variants balance protective immune responses and viral escape in HIV-1 infection” (Cell Reports, 2022).
“Also recorded” adds a separate entry of the source.

Experiments:
[1] = tested on: KK10-specific CTL clone G12C; test: Competition IFN-γ ELISpot with KK10-specific CTL clone G12C and T2-HLA-B*27:05 cells; format: cell-based, human; conditions: result in words; for Effect on IFN-γ release by G12C in response to KK10 at the EC50 concentration: peptide pre-incubated 30 min at 37°C with T2-HLA-B*27:05 cells at molar ratios 1-800 relative to KK10; for Inhibition of the G12C response to KK10 at the amounts produced by proteasomal digestion: comparison of competition ELISpot with the processing data
Experimental: G12C cells were expanded as described previously([Iversen et al., 2006]) and rested for 2 days in fresh medium supplemented with IL-2 (20 IU/mL) and IL-15 (25 ng/mL) before testing in IFN-γ ELISpot assays (Merck Millipore) ([Tenzer et al., 2009], [2014]). TAP-deficient T2 cells were transfected with HLA-B^∗27:05 to generate T2-HLA-B^∗27:05 cells ([Kuipers et al., 1996]). These cells were used in competition assays to minimize the potentially confounding effects of internally loaded peptides and other HLA class I and class II molecules. […] The EC50 concentration was determined in preliminary ELISpot assays as the concentration required to elicit half-maximal IFN-γ production ([Tenzer et al., 2009], [2014]). Samples were tested in triplicate or quadruplicate. G12C responses were expressed as spot-forming units per 10^6 cells. Standard ex vivo IFN-γ ELISpot assays were performed as described previously ([Tenzer et al., 2009], [2014]).

TAP = test: TAP-peptide competitive binding assay; conditions: result in words; for Normalized TAP affinity relative to KK10: competitive binding, Figure 1E
[2] = tested on: PBMCs isolated from HLA-B*27:05+ patients with chronic HIV-1 infection; test: Ex vivo IFN-γ ELISpot; format: cell-based, human; conditions: PBMCs of ten HLA-B*27:05+ patients, result in words
HLA-B*27:05 = HLA-B*27:05 (Homo sapiens, UniProt P01889, D138H/D201E/E176V/E204Q/G107R/H137Y/K202T/N104T/N87E/Q56L/Q94K/R106L/R155S/R180L/S101D/S121N/S48T/Y140D/Y33H/Y91C); test: Refolding of epitope-form peptides with HLA-B*27:05 heavy chain and β2m (heterotrimer formation); format: binding; conditions: rapid dilution refold, size exclusion, mass spectrometry, result in words
Source text: HLA-B^∗27:05 heavy chain and β2M proteins were expressed and purified as described previously ([Burgess, 2009]; [Tenzer et al., 2009]) and refolded with peptide using a rapid dilution method ([Tsumoto et al., 2003]). Heterotrimeric complexes were purified via size exclusion using a HiLoad 26/600 Superdex 75 pg column fitted to an AKTA Purifier FPLC System (GE Healthcare). Eluent fractions corresponding to absorbance peaks were examined via SDS-PAGE. Heterotrimeric complexes were then purified again via size exclusion using a Superdex 75 10/300 GL column fitted to an AKTA Purifier FPLC System (GE Healthcare). Correctly refolded heterotrimers were concentrated to > 10 mg/mL for crystallization trials using Amicon Ultra-0.5 Centrifugal Filter Units with Ultracel-10 Membranes (Merck Millipore). Optimal protein concentrations were determined for each complex using a PCT Pre-Crystallization Test (Hampton Research). […] Crystallization was carried out using the sitting-drop vapor-diffusion method. Briefly, crystallization screen reagents (Hampton Research) were dispensed into a CrystalQuick 96 Well Sitting Drop Plate (Greiner) using a Hydra eDrop II (Thermo Fisher Scientific), and 10 nL of protein was dispensed as a sitting drop in each well after mixing with 10 nL of the corresponding well buffer using a Microsys Liquid Handler (Cartesian Technologies). Crystal screens were stored at 4°C using a Protein Crystallization Imager (Formulatrix). Crystals obtained from the screens were immersed in reservoir buffer containing 20% glycerol as a cryoprotectant and vitrified at 100 K in liquid nitrogen. X-ray diffraction was carried out on beamlines at the European Synchrotron Radiation Facility, Grenoble, France (www.esrf.eu) or at the Diamond Light Source, Didcot, UK (www.diamond.ac.uk).

ERAP1/2 = conditions: incubation with ERAP1/2 for 140 min, Figure 1G, result in words
KIR3DL1*001 = KIR3DL1*001 binding assay (dextramer staining of KIR3DL1*001-transfected BA/F3 cells); conditions: peptide complexed with HLA-B*27:05 dextramer; Figure 7A; result in words
Experimental: Each line was stained with LIVE/DEAD Fixable Violet (Thermo Fisher Scientific). […] The parental line was used as a control for each condition. Samples were tested in duplicate.

Substance: KRWI [KI4]
- Effect on IFN-γ release by G12C in response to KK10 at the EC50 concentration [1]: less striking than those of the longer minitopes
- Normalized TAP affinity relative to KK10 (TAP): lowest affinities
- Peptide-specific IFN-γ release (immunogenicity) [2]: poor immunogenicity
- Formation of heterotrimeric complexes with HLA-B*27:05 heavy chain and β2m in refolds (HLA-B*27:05): formation of heterotrimeric complexes; also recorded: refolded inefficiently

Substance: GEIYKRWIILGLNKI [GI15]
- ERAP1/2 trimming (reduction in abundance) (ERAP1/2): trimmed significantly more than other epitope forms

Substance: KRWIILGL [KL8]
- Inhibition of the G12C response to KK10 at the amounts produced by proteasomal digestion [1]: more than halve the G12C response to KK10
- Normalized TAP affinity relative to KK10 (TAP): exceeded that of the immunodominant HLA-B^∗57:01/B^∗5703-restricted HIV-1 epitope TW10
- TAP-adjusted production of KK10 epitope forms (predicted relative abundance in the ER) (TAP; proteasomal production adjusted for TAP interactions, Figure 1F): dominant minitope
- Peptide-specific IFN-γ release (immunogenicity) [2]: Specific IFN-γ release was identified
- KIR3DL1 binding relative to KK10 (KIR3DL1*001): Further reductions

Substance: KRWIIL [KL6]
- Inhibition of the G12C response to KK10 at the amounts produced by proteasomal digestion [1]: more than halve the G12C response to KK10
- Normalized TAP affinity relative to KK10 (TAP): exceeded that of the immunodominant HLA-B^∗57:01/B^∗5703-restricted HIV-1 epitope TW10
- Peptide-specific IFN-γ release (immunogenicity) [2]: poor immunogenicity

Substance: KRWIILG [KG7]
- Normalized TAP affinity relative to KK10 (TAP): exceeded that of the immunodominant HLA-B^∗57:01/B^∗5703-restricted HIV-1 epitope TW10
- Peptide-specific IFN-γ release (immunogenicity) [2]: poor immunogenicity

Substance: KRWII [KI5]
- Effect on IFN-γ release by G12C in response to KK10 at the EC50 concentration [1]: less striking than those of the longer minitopes
- Normalized TAP affinity relative to KK10 (TAP): lowest affinities
- Peptide-specific IFN-γ release (immunogenicity) [2]: poor immunogenicity
- Formation of heterotrimeric complexes with HLA-B*27:05 heavy chain and β2m in refolds (HLA-B*27:05): refolded inefficiently
- Formation of heterotrimeric complexes with HLA-B*27:05 heavy chain and β2m in refolds (HLA-B*27:05; listed as KL5): formation of heterotrimeric complexes

Substance: KRWIIMGL [KL8-M]
- KIR3DL1 binding relative to KK10 (KIR3DL1*001): marginally increased binding to KIR3DL1
